From paper PMC11481913, “Rational design of a flavoenzyme for aerobic nicotine catabolism” (mBio, 2024)

Biological target: T1, Pnao (Pseudomonas putida, UniProt F8G0P1)
T1 construct: dimer
Assay: FAD reduction at […] nm (stopped-flow); FAD-binding ratio by HPLC
Conditions: FAD co-purified with the enzyme

T1 sequence (F8G0P1 whole entry): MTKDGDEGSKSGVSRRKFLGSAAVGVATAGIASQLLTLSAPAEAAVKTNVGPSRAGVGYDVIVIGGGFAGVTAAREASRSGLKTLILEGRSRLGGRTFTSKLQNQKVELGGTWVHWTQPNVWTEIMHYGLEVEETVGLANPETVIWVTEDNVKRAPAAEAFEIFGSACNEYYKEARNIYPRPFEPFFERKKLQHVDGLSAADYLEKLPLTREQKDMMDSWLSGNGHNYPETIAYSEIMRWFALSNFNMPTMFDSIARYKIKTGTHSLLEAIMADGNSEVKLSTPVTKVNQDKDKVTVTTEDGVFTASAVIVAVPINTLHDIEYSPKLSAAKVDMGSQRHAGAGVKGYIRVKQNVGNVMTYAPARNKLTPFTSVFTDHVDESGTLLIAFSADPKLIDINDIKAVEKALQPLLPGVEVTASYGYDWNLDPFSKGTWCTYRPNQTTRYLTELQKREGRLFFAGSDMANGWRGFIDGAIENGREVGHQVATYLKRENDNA

Cc1cc2nc3c(=O)[nH]c(=O)nc-3n(C[C@H](O)[C@H](O)[C@H](O)COP(=O)(O)OP(=O)(O)OC[C@H]3O[C@@H](n4cnc5c(N)ncnc54)[C@H](O)[C@@H]3O)c2cc1C [FAD, flavin adenine dinucleotide]
FAD reduction at 450 nm (stopped-flow); FAD-binding ratio by HPLC: the enzyme-bound FAD is transformed from the oxidized to the hydroquinone
